Assay results taken from US10953099B2, “Compositions comprising a metal source, dithiocarbamate and cyclodextrin” (priority 2016, dated 2021).

Columns and labels:
[1] = tested on: Raji human B-cell lymphoma cells; experiment: Cell-titer-blue viability, Raji; assay type: cell-based; conditions: in presence of sulfobutyl ether-β-cyclodextrin, 72 h
Protocol: (§1) The anti-tumoral efficacy of a panel of 7 different Au complexes, ATM/Disulfiram, the standard therapeutic Cisplatin and well known antitumoral CuDTC (see Table 2) was tested on Jurkat human T-cell leukemia and Raji human B-cell lymphoma cells. […] 24 h later, test compound were added in the presence of sulfobutyl ether-β-cyclodextrin (30 fold disulfiram concentration) in various dilutions (100-0.01 μM). All concentrations were applied in triplicate. […] The “Factor of Selectivity for T-cell Leukemia” was calculated by division of IC50 on Raji cells/IC50 on Jurkat cells.

[2] = tested on: Jurkat human T-cell leukemia cells; experiment: Cell-titer-blue viability, Jurkat; assay type: cell-based; conditions: for selectivity for Jurkat IC50 Raji/IC50 Jurkat (Factor of Selectivity for T-cell Leukemia): IC50 on Raji cells/IC50 on Jurkat cells; for IC50: in presence of sulfobutyl ether-β-cyclodextrin, 72 h
Protocol: as §1

H209 SCLC cells = experiment: H209 SCLC tumor relapse model in mice; assay type: in vivo, nu/nu mice; conditions: after 6 weeks DKFZ-00608 15 mg/kg daily in 60 mM sulfobutyl ether beta-cyclodextrin
Protocol: The inventors wanted to compare the efficacy of DKFZ-00608 on human SCLC tumors with standard therapy in vivo. […] Followed by DKFZ-00608 in 60 mM sulfobutyl ether beta-cyclodextrin (15 mg/kg daily) for 6 weeks • DKFZ-00608 in 60 mM sulfobutyl ether beta-cyclodextrin (15 mg/kg daily) for 6 weeks. Tumor sizes were determined 2× per week for the first 9 weeks, thereafter, once per week.

Row | Structure (SMILES) | IC50 [1] [µM] | selectivity for Jurkat IC50 Raji/IC50 Jurkat (Factor of Selectivity for T-cell Leukemia) [2] | IC50 [2] [µM] | animals with no palpable tumors (H209 SCLC cells)
1 | N.N.[Cl][Pt][Cl] [Cisplatin] | 2.72 | 4.45 | 0.61 | 
2 | CCN(CC)C(=S)[S-].CCN(CC)C(=S)[S-].[Cu+2] [CuDTC] | 0.02 | 2.62 | 0.01 | 
3 | CCN(CC)/C1=[SH]/[Au][S]/C(N(CC)CC)=[SH]\[Au][S]1 [DKFZ-00608] |  |  |  | 6 out of 10
